Values joined by “and” are separate entries in the source; they are usually repeats but may differ in a detail not shown here. Equal values may be shown once.
Experiments:
plasma albumin = plasma albumin (Homo sapiens, UniProt P02768); test: Bio-layer interferometry analysis; type: binding; details: BLI, biotinylated albumin
Method: Albumin was biotinylated with EZ-Link NHS-LC-LC-Biotin (Thermo Fisher Scientific, Waltham, MA, USA) for 30 min at room temperature and then added to a 96-well plate (Greiner Bio-One, PN:655209). Biotinylation was performed by loading the reaction complex onto a super streptavidin capacity probe (ForteìBIO, Menlo Park, CA, United States), and results were analyzed with a FortéBIO Octet Red instrument upon binding dPTX or HM. ForteìBIO data analysis software was used to calculate the association and dissociation kinetic constants.

in vivo = details: C57BL/6, mouse, brain and plasma, iv
Method: The brain samples were homogenized through ultrasonication in saline before the extraction procedure. The collected supernatant was dried under nitrogen gas, reconstituted in acetonitrile, and divided into aliquots that were loaded onto the LC-MS/MS system. […] The mobile phase for measurement of all compounds was phase A (0.1% formic acid in water) and phase B (0.1% formic acid in acetonitrile): 0–3 min/2%–10% B; 3–8 min/10%–60% B; 8–13 min/60%–90% B; 13–14 min/90%–2% B; and 14–15 min/2% B. The column and auto-sampler temperatures were maintained at 40 °C and 4 °C, respectively. Data were analyzed in Agilent MassHunter workstation software vB.01.03 (Agilent Technologies, Inc.). […] The amounts of the 2 drugs in the plasma and brain samples collected from mice were quantified by using standard and linear least-squares regression curves through calculation of the area under curve (AUC).
PK analysis was performed with PKSolver (Microsoft Corporation)[15]. […] PK analysis was performed through non-compartmental analysis according to Bailer’s method[16].
The percentage penetration of a drug into the brain was expressed as brain AUC0-72hr /plasma AUC0-72hr.

[1] = system: U-87 MG-Luc2 glioma cells; test: Orthotopic brain tumor model; type: in vivo, BALB/c nude mice; details: for MST (median survival time): vehicle MST 33; for ILS (increase in lifespan): no HM
Method: An orthotopic brain tumor model was established by Wuxi Apptec. Briefly, female BALB/c nude mice 6–8 weeks of age and weighing 18–22 g (Shanghai Sippr-BK Laboratory Animal Co. Ltd., Shanghai, China) were anesthetized through intraperitoneal injection of pentobarbital sodium (80 mg/kg) and subcutaneously administered 0.1 mg/kg buprenorphine before and after surgery for analgesia. The anesthetized mice were intracranially (i.c.) inoculated with U-87 MG-Luc2 cells (2×10^5 cells in 2 μL PBS) in the right frontal lobe. […] The physiological condition of the animals was assessed daily. The animals were pre-anesthetized with a mixture gas of oxygen and isoflurane (1%–3%) to achieve a complete anesthetic state before bioluminescence measurements. Tumor growth was monitored with an in vivo imaging system (Lumina III; PerkinElmer, Inc.), and the survival of all animals was recorded for the calculation of the median survival time (MST) for each group. The increase in lifespan (ILS) was determined as the ratio of the MST of the treatment group to that of the control group, expressed as the percentage increase over the lifespan of the control animals.
Statistical analyses were performed in Microsoft Excel (Microsoft Corporation) and Prism (GraphPad Software). The statistical significance for all experiments was determined with one way ANOVA and Dunnett test. Kaplan-Meier statistical analysis was used for the calculation of the survival rates of different groups of mice, each containing 8 animals, and P-values were calculated with the log rank test. […]

P-gp = P-gp (Homo sapiens, UniProt P08183); details: MDCK monolayers transfected with P-gp; among cyclosporin A, elacridar, tariquidar; cited from earlier work
[2] = Plasma PK of cyclodextrin-HM co-treated with PTX; type: in vivo, C57BL/6 mice; details: at 72 h, co-treatment with PTX
Method: Plasma samples were collected at 72 h for the analysis of PK parameters in PTX-HM treatment (Figure 4D).

ABCB1 = details: human 293FRT embryonic kidney cells stably expressing ABCB1; cited from earlier work
[3] = Plasma PK of cyclodextrin-HM after i.v. injection; type: in vivo, C57BL/6 mice; details: C57BL/6, mouse, iv, 20 mg/kg
Method: Plasma samples were obtained from mice at 0, 0.083, 0.25, 0.5, 1, 2, 4, 8, and 24 h time points. Non-compartmental analysis of plasma data after intravenous bolus input was used to determine standard PK parameters of analytes. Administration i.v. has the advantage of allowing for rapid exposure as well as precise control of dose and administration of the tested therapeutic compounds[12], and oral administration may be less efficient with low drug bioavailability, owing to drug adsorption and metabolization in the liver. […] Mice were then anesthetized through intraperitoneal injection of pentobarbital (50 mg/kg) before collection of blood for further analysis.

plasma albumin, sequence (P02768 25-609): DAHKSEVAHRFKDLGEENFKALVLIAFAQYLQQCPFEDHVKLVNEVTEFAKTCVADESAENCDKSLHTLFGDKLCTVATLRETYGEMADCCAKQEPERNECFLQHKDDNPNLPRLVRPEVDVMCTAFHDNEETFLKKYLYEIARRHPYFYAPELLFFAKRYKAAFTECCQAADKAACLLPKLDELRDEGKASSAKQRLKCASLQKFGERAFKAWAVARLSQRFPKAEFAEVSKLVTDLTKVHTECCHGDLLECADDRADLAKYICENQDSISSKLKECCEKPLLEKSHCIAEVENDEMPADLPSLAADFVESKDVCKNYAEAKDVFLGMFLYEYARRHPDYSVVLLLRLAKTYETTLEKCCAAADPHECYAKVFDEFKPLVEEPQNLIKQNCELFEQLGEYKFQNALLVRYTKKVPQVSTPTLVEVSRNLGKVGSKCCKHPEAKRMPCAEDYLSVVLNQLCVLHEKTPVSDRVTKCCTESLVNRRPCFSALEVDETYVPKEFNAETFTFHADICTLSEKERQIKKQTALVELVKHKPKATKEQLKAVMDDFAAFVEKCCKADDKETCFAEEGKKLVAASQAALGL
P-gp, sequence (P08183 whole entry): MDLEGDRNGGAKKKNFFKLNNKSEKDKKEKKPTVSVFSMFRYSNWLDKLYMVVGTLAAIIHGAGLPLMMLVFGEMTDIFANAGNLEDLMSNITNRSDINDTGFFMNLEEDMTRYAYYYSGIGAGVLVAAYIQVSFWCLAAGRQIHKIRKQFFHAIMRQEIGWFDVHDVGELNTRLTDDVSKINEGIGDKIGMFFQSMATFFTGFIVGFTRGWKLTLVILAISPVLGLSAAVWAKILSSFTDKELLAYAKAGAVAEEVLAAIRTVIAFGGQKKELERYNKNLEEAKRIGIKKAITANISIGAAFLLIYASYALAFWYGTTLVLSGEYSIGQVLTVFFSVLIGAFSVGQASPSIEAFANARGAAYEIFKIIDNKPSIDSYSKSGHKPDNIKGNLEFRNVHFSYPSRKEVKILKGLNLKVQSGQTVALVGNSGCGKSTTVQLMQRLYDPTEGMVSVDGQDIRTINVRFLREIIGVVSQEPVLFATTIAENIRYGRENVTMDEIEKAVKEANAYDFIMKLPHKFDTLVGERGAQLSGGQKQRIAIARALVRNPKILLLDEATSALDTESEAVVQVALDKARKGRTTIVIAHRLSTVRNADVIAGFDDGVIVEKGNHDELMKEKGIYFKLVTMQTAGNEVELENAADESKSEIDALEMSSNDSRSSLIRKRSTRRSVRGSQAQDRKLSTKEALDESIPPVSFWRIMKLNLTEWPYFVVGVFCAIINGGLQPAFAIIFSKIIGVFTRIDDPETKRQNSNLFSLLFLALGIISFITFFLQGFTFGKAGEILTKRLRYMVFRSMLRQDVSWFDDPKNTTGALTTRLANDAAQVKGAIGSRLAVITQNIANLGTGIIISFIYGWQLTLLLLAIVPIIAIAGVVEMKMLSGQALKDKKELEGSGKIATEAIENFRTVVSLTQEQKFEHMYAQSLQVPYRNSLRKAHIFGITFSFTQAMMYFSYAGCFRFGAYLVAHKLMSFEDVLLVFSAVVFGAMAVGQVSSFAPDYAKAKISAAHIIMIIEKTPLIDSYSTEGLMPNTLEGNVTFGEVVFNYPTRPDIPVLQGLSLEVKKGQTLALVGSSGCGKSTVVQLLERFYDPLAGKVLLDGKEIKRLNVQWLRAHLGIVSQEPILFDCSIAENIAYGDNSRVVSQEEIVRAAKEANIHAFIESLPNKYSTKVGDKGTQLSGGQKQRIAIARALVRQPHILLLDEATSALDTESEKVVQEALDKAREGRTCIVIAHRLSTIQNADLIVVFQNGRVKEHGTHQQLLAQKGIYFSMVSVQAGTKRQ

AUC 0-t/0-inf_obs ratio [2] [%]	AUC(0-t) ([3]; read-out: area under the curve (AUC0-t)) [ng·h/mL]	half-life ([3]; read-out: half-life (t1/2)) [h]	Structure (SMILES)	Kd (plasma albumin)	Kp at 0.5 h (in vivo)	Kp (in vivo; 10 mg/kg)	MST (median survival time) ([1]; PTX 5 mg/kg i.v. q4d×5, no HM)	ILS (increase in lifespan) ([1]; PTX 5 mg/kg) [%]	MST (median survival time) ([1]; PTX 10 mg/kg i.v. q4d×5, no HM)	ILS (increase in lifespan) ([1]; PTX 10 mg/kg) [%]	potency in inhibiting the transepithelial transport of PTX (P-gp)	potency in inhibiting P-gp-mediated transport of Rho123, relative to XR9576 (Tariquidar) (ABCB1)
–	–	–	CC(=O)O[C@H]1C(=O)[C@@]2(C)[C@H]([C@H](OC(=O)c3ccccc3)[C@]3(O)C[C@H](OC(=O)[C@H](O)[C@@H](NC(=O)c4ccccc4)c4ccccc4)C(C)=C1C3(C)C)[C@]1(OC(C)=O)CO[C@@H]1C[C@@H]2O [PTX, Paclitaxel]	43.3 µM and 43 µM	0.46	0.29	33 day and 33 (30~38) day	0	35 day and 35 (30~38) day	6	–	–
96	4750 to 9760	18.7 to 40.6	COc1cc2c(cc1OC)CN(CCc1ccc(-n3nnc(-c4cc(OC)c(OC)cc4NC(=O)c4cc(=O)c5ccccc5o4)n3)cc1)CC2 [HM, HM30181A]	–	–	–	–	–	–	–	highest potency	~ 24 times
